Data published in the NIST ThermoML archive (doi:10.1021/je034290l).

Tests used:
[1] = Liquid; for mass density: 318.15 K, 101.33 kPa
[2] = refractive index (Na D-line) (dimensionless); details: 318.15 K; 101.33 kPa; Liquid; Standard Abbe refractometry

CCC(=O)OC [methyl propanoate]
Details	mass density [kg/m3]	refractive index
[1]	884.3	–
[2]	–	1.3641

[1]
Details	vapor or sublimation pressure [kPa]
325.88 K	40.08
327.07 K	42.57
328.03 K	44.13
329 K	45.29
329.68 K	46.72
330.24 K	47.97
330.7 K	49.34
332 K	50.58
332.74 K	51.89
333.19 K	53.37
334.04 K	54.63
334.49 K	55.93
335.63 K	57.49
335.97 K	58.57
336.7 K	60.05
337.5 K	61.5
338.06 K	62.73
338.52 K	64.17
339.43 K	66.58
339.71 K	67.89
340.73 K	69.17
341.07 K	70.53
341.52 K	71.89
341.72 K	72.42
342.35 K	73.37
342.6 K	75.37
342.88 K	75.83
343.25 K	75.91
343.95 K	77.99
344.15 K	78.43
344.25 K	78.74
344.75 K	79.89
345.4 K	82.35
345.65 K	82.59
346.32 K	84.18
346.57 K	85.43
346.65 K	86.74
347.23 K	87.87
347.4 K	88.1
348.15 K	90.74
348.73 K	91.95
348.98 K	93.23
349.23 K	94.6
349.73 K	96.03
350.23 K	97.26
350.59 K	98.7
350.99 K	100
351.65 K	101.32
352.23 K	102.75
352.4 K	103.87
352.82 K	105.43
352.9 K	106.58
353.73 K	107.82
353.82 K	109.39
354.15 K	110.78
354.57 K	112.07
354.82 K	113.15
355.65 K	114.82
355.74 K	115.9
355.82 K	117.13
356.32 K	118.57
356.9 K	120.15
357.15 K	121.17
357.39 K	122.81
357.9 K	123.81
358.24 K	124.65
358.48 K	126.73
358.65 K	127.87
358.98 K	129.37
359.32 K	130.43
359.48 K	130.89
359.98 K	133.25
360.4 K	134.57
360.57 K	135.81
361.08 K	137.35
361.4 K	138.56
361.73 K	140
361.9 K	141.21
362.44 K	142.57
362.57 K	144.11
363.07 K	145.35
363.4 K	146.48
363.73 K	148.09
363.91 K	149.39
364.4 K	151.04
364.57 K	152.48
364.9 K	153.26
364.99 K	154.82
365.38 K	156.06
365.48 K	156.17
365.82 K	158.49
365.9 K	159.73
366.15 K	160.57
366.57 K	162.57
366.65 K	163.38
367.15 K	165.17
367.4 K	166.74
367.82 K	167.89

CCCC(=O)OC [methyl butanoate]
Details	mass density [kg/m3]	refractive index
[1]	870.24	–
[2]	–	1.3753

[1]
Details	vapor or sublimation pressure [kPa]
347.53 K	40.12
348.26 K	41.24
349.21 K	42.76
349.79 K	43.84
350.81 K	45.25
351.98 K	46.74
352.34 K	47.92
353.21 K	49.41
353.72 K	50.85
354.96 K	51.83
355.26 K	53.5
356.06 K	54.82
356.79 K	55.89
357.44 K	57.38
358.24 K	58.61
358.9 K	60.02
359.7 K	61.42
360.43 K	62.63
360.93 K	64.13
362.03 K	66.54
362.31 K	68.03
363.2 K	69.42
363.49 K	70.61
363.78 K	71.18
365.02 K	73.5
365.38 K	74.77
365.97 K	75.89
366.41 K	77.39
366.84 K	78.61
367.57 K	80.14
368.01 K	81.39
368.59 K	82.57
369.25 K	83.91
369.95 K	85.71
370.19 K	86.58
370.49 K	87.94
371.07 K	88.35
371.72 K	90.8
371.79 K	92.1
372.31 K	93.26
372.89 K	94.59
373.47 K	95.92
373.84 K	97.46
374.57 K	99.14
374.77 K	100.04
375.24 K	101.32
375.37 K	102.58
375.81 K	104.06
376.02 K	105.47
376.39 K	106.5
376.97 K	107.92
377.55 K	109.23
378.14 K	110.58
378.36 K	112.15
378.79 K	113.36
378.94 K	114.67
379.3 K	115.84
379.67 K	117.27
380.03 K	118.72
380.69 K	120.15
381.2 K	121.36
381.56 K	122.59
381.64 K	124.01
381.85 K	125.24
382.22 K	126.48
382.73 K	127.91
382.95 K	129.4
383.6 K	130.75
383.68 K	132.15
384.33 K	133.49
384.77 K	134.91
384.84 K	135.92
385.06 K	137.27
385.35 K	138.45
385.72 K	140.01
386.06 K	141.27
386.74 K	142.63
386.84 K	144.13
387.1 K	145.37
387.47 K	146.49
387.61 K	147.69
387.98 K	149.24
388.41 K	150.57
388.92 K	151.94
389.02 K	153.4
389.36 K	154.57
390.02 K	156.49
390.16 K	157.37
390.36 K	158.7
390.53 K	160.05
390.89 K	161.18
391.07 K	162.57
391.55 K	163.94
391.98 K	165.7
392.2 K	166.69
